In PMC7238388, “Biological Evaluation of Newly Synthesized Biaryl Guanidine Derivatives to Arrest β-Secretase Enzymatic Activity Involved in Alzheimer's Disease” (BioMed Research International, 2020):
Read-outs that look alike come from different tables or passages of the source.

What was measured:
[1] = molecular target: T1, BACE1 enzyme (Homo sapiens, UniProt P56817); test: BACE1 FRET-based inhibitory activity assay (Sigma-Aldrich kit CS0010); format: biochemical
T1 construct: purchased Sigma-Aldrich CS0010
Protocol: BACE1 inhibitory activity was carried out by adopting the procedures described by the Sigma-Aldrich FRET-based assay activity kit (product # CS0010).
Briefly, the assay was carried out in a fixed volume of 100 μl with the BACE1 substrate (20 μl, 50 μM), assay buffer (78 μl/78-X μl, pH 4.5), test sample(s) (X μl, 100 μM), and BACE1 enzyme (2 μl, ~0.3 unit/μl) incubated at 37°C for 75 min in 96-well microplate reaction mixture. The baseline fluorescence (null time) signal was noticed (at 320 nm) immediately after the addition of BACE1 enzymes while emission signals were monitored at 405 nm at 25°C. Both the enzyme and the substrate were prepared in the buffer while tested samples dissolved primarily in DMSO (5%) subsequently in serially diluted buffer solution in a desired volume of 2 μl, 3 μl, and 5 μl having 200 pmol, 300 pmol, and 500 pmol concentration, respectively. A standard curve was prepared between fluorescent unit (FU) and standard solution (100 μM, 100-500 pmol, and 1-5 μl) to find out 50% BACE1 cleaving activity. The sample blank (buffer with substrate) was treated as the negative control while the positive control was the solution of the buffer with substrate and enzyme mixture (http://www.sigmaaldrich.com). Finally, IC50 of the intended compounds were calculated via GraphPad Prism v8 software.

[2] = system: AlCl3-induced neurotoxic mice; test: Morris water maze test in AlCl3-induced neurotoxicity mice; format: in vivo, BALB/c mice
Protocol: (§1) Male BALB/c mice (3.5 to 5.5 months of age) were purchased from National Institute of Health (NIH) Islamabad, Pakistan. All experiments were performed by following the rules and regulations in accordance with the Helsinki Declaration after getting permission from the Departmental Review Committee (Ref. # PHM.Eth/CS-M01/18-001 dated 05/2018). Animals were kept in standard cages and provided food, water, and cleanliness in accordance with the documented protocols. Moreover, they were categorized into nine groups (n = 10) for experimental purposes.
(§2) The control group of mice was treated with drinking water having aluminum chloride (17 mg/kg) and tape water for a period of five weeks. Synthesized ligands (20-55 mg/kg) were administered to neutralize the AlCl3 effects and to design treated mouse groups. All the behavioral tests were performed on days 28 to 34 (08:30 am to 4:30 pm at 25 ± 2°C). Animals were shifted 20 minutes prior to the experimentation room to get accustomed with the test environment. Trials were recorded via videocam, and results were obtained to reveal the final conclusions.
To evaluate 3D spatial recalling memory of the animals under observations, an authentic and sensitive assay “Morris water maze test” was carried out.
The apparatus used for this test has a round pool with a 120 cm diameter and a 60 cm of depth. The pool is divided into 4 hypothetical quadrants North, West, South, and East. The experiment began on day 28, and 5 trials were executed each day. The mouse was given 1 min to find out the hidden platform with a 10 min interval between the two successive trials. The usual time essential for a mouse to reach at the platform was recorded, and an average of 5 trials was presumed as the escape latency of the animal for that day. On the 32nd day of intervention, a probe test was executed when there was no platform, with a different release position. The spatial memory of the mouse was estimated by computing the time spent by the mouse in the quadrant in which the platform was formerly located. […]

[3] = system: AlCl3-induced mouse models; test: Novel object recognition memory test in AlCl3-induced AD model mice; format: in vivo, BALB/c mice; conditions: AD model treated with compound; control 64.44 ± 2.50 s, AD model 31.80 ± 2.00 s; p < 0.05
Protocol: as §1, §2
The novel object recognition memory test is an additional procedure to describe and evaluate the memory of the rodents. The entire methodology was performed in a specific designed box of dimensions about 25 cm × 25 cm × 25 cm at daytime (25 ± 2°C). […]

[4] = BACE1 FRET assay, pH 4.5, 37°C, 75 min, read-out: IC50

T1 sequence (P56817 46-501): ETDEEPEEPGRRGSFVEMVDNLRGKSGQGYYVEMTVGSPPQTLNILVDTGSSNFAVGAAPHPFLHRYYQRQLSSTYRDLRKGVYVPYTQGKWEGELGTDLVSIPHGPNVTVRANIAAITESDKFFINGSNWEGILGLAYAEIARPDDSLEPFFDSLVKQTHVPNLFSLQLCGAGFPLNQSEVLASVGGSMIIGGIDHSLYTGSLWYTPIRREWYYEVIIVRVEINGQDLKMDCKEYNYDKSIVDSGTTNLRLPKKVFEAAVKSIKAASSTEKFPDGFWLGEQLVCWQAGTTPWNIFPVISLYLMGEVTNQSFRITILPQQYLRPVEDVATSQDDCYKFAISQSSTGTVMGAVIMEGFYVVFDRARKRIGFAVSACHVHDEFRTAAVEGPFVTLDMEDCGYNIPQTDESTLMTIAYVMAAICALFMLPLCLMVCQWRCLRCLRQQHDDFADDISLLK

Structure (SMILES)	melting point [°C]	IC50 [1, 4] [µM]	also measured
N=C(Nc1cnc(F)c(F)c1)Nc1cnc(F)c(F)c1 [Compound 9, 1,3-bis(5,6-difluoropyridin-3-yl)guanidine]	128 to 130		escape latency ([2]; day 5, AlCl3-induced mice treated with compound, AlCl3 group 50.60 ± 3.70, control 20.20 ± 2.01, p < 0.05, in s (unit assumed)): 27.72 ± 2.60; number of crossings of the targeted quadrant ([2]; probe test, AD model 6.10 ± 1.0, control 19.80 ± 1.90): 16.70 ± 1.07; time spent in exploration of the targeted quadrant ([2]; probe test, per hundred of total time (Figure 2c), AD-induced 23.6 ± 2.01, control 49.60 ± 2.35): 41.07 ± 2.5; exploration time [3]: 53.80 ± 2.15 s
N=C(Nc1ccc(Br)cc1)Nc1ccc(Br)cc1 [Compound 10, 1,3-bis(4-bromophenyl)guanidine]	250 to 252	321	BACE1 inhibition ([1]; FRET assay, at 500 pmol): 35%
N=C(Nc1ccc(Br)c2ccccc12)Nc1ccc(Br)c2ccccc12 [Compound 2, 1,3-bis(4-bromonaphthalen-1-yl)guanidine]	128 to 130	235	
N=C(Nc1ccccc1[N+](=O)[O-])Nc1ccccc1[N+](=O)[O-] [Compound 3, 1,3-bis(2-nitrophenyl)guanidine]	136 to 138		IC50 [1]: 259 µM
N=C(Nc1cc(C(F)(F)F)cc(C(F)(F)F)c1)Nc1cc(C(F)(F)F)cc(C(F)(F)F)c1 [Compound 8, 1,3-bis(3,5-bis(trifluoromethyl)phenyl)guanidine]	76 to 78	229	

Continued, in another order:

melting point [°C]	IC50 [1, 4] [µM]	Structure (SMILES)	also measured
140 to 142	9	N=C(Nc1ccccn1)Nc1ccccn1 [Compound 4, 1,3-di(pyridin-2-yl)guanidine]	
130 to 132	85	N=C(Nc1ccccc1F)Nc1ccccc1F [Compound 1, 1,3-bis(2-fluorophenyl)guanidine]	
146 to 148	103	N=C(Nc1ccc(F)cc1)Nc1ccc(F)cc1 [Compound 12, 1,3-bis(4-fluorophenyl)guanidine]	
	71	N=C(Nc1ccc(F)c(F)c1)Nc1ccc(F)c(F)c1 [Compound 13, 1,3-bis(3,4-difluorophenyl)guanidine]	
126 to 128	0.102	N=C(Nc1cc(F)c2ccccc2c1)Nc1cc(F)c2ccccc2c1 [Compound 6, 1,3-bis(4-fluoronaphthalen-2-yl)guanidine]	
146 to 148	159	N=C(Nc1ccc2ccccc2c1)Nc1ccc2ccccc2c1 [Compound 7, 1,3-di(naphthalen-2-yl)guanidine]	
160 to 162	172	N=C(Nc1ccc(Cl)cc1F)Nc1ccc(Cl)cc1F [Compound 11, 1,3-bis(4-chloro-2-fluorophenyl)guanidine]	
133 to 134	0.091	N=C(Nc1ccc2ncccc2c1)Nc1ccc2ncccc2c1 [Compound 5, 1,3-di(quinolin-6-yl)guanidine]	
